In ChEMBL document CHEMBL1201861, “Genomics of Drug Sensitity in Cancer screening data, Wellcome Trust Sanger Institute”:

Columns and labels:
Assay in all cases: cells
Assay type in all cases: functional, cell-based, Homo sapiens
COR-L88 = test system: COR-L88;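 note: growth inhibition of COR-L88 cells, read out with a cell viability assay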
Description: SANGER: Inhibition of human COR-L88 cell growth in a cell viability assay.

D-392MG = test system: D-392MG
DOHH-2 = test system: DOHH-2;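 note: growth inhibition of human DOHH-2 cells, read out with a cell viability assay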
Description: SANGER: Inhibition of human DOHH-2 cell growth in a cell viability assay.

ES5 = test system: ES5;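 note: growth inhibition of human ES5 cells, read out by a cell viability assay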
Description: SANGER: Inhibition of human ES5 cell growth in a cell viability assay.

ES6 = test system: ES6;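 note: growth inhibition of human ES6 cells, read out with a cell viability assay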
Description: SANGER: Inhibition of human ES6 cell growth in a cell viability assay.

ES7 = test system: ES7;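 note: growth inhibition of cultured human ES7 cells, read out as cell viability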
Description: SANGER: Inhibition of human ES7 cell growth in a cell viability assay.

EOL1 = test system: EOL1;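 note: growth inhibition of EoL-1 cells, read out by a cell viability assay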
Description: SANGER: Inhibition of human EoL-1-cell cell growth in a cell viability assay.

HC-1 = test system: HC-1;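 note: growth inhibition of HC-1 cells measured by a cell viability assay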
Description: SANGER: Inhibition of human HC-1 cell growth in a cell viability assay.

HCC2218 = test system: HCC2218;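 note: cell viability assay read-out, with IC50 given as the concentration that inhibits growth of the cell line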
Description: SANGER: Inhibition of human HCC2218 cell growth in a cell viability assay.

HCE-4 = test system: HCE-4;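 note: cell viability assay measuring inhibition of growth in the human HCE-4 cell line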
Description: SANGER: Inhibition of human HCE-4 cell growth in a cell viability assay.

HDLM-2 = test system: HDLM-2;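 note: cell viability assay measuring suppression of HDLM-2 proliferation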
Description: SANGER: Inhibition of human HDLM-2 cell growth in a cell viability assay.

HL-60 = test system: HL-60;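 note: growth inhibition of human HL-60 cells, read out with a cell viability assay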
Description: SANGER: Inhibition of human HL-60 cell growth in a cell viability assay.

KS-1 = test system: KS-1;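 note: growth inhibition of KS-1 cells, read out with a cell viability assay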
Description: SANGER: Inhibition of human KS-1 cell growth in a cell viability assay.

LAMA-84 = test system: LAMA-84;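 note: growth inhibition of LAMA-84 cells, read out with a cell viability assay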
Description: SANGER: Inhibition of human LAMA-84 cell growth in a cell viability assay.

LB2518-MEL = test system: LB2518-MEL;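 note: growth inhibition of human LB2518-MEL cells, measured with a cell viability assay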
Description: SANGER: Inhibition of human LB2518-MEL cell growth in a cell viability assay.

LB831-BLC = test system: LB831-BLC;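 note: growth inhibition of LB831-BLC cells, read out with a cell viability assay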
Description: SANGER: Inhibition of human LB831-BLC cell growth in a cell viability assay.

Lu-65 = test system: Lu-65;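 note: growth inhibition of Lu-65 cancer cells, read out by a cell viability assay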
Description: SANGER: Inhibition of human LU-65 cell growth in a cell viability assay.

LXF-289 cell line = test system: LXF-289 cell line
Description: SANGER: Inhibition of human LXF-289 cell growth in a cell viability assay.

MLMA = test system: MLMA;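 note: growth inhibition of MLMA cells (human), determined through a cell viability readout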
Description: SANGER: Inhibition of human MLMA cell growth in a cell viability assay.

MN-60 = test system: MN-60;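 note: growth inhibition of the MN-60 cell line, determined with a cell viability assay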
Description: SANGER: Inhibition of human MN-60 cell growth in a cell viability assay.

NB17 = details: Homo sapiens, NB17;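 note: growth inhibition of NB17 cells, read out with a cell viability assay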
Description: SANGER: Inhibition of human NB17 cell growth in a cell viability assay.

NCI-H1299 = test system: NCI-H1299;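 note: growth inhibition of human NCI-H1299 cells, read out by a cell viability assay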
Description: SANGER: Inhibition of human NCI-H1299 cell growth in a cell viability assay.

NCI-H1395 = test system: NCI-H1395;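 note: cell viability assay read-out quantifying reduced proliferation of human NCI-H1395 cells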
Description: SANGER: Inhibition of human NCI-H1395 cell growth in a cell viability assay.

NCI-H2126 = test system: NCI-H2126;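 note: growth inhibition of the cancer cell line, determined with a cell viability readout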
Description: SANGER: Inhibition of human NCI-H2126 cell growth in a cell viability assay.

NKM-1 = test system: NKM-1;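 note: growth inhibition of NKM-1 cells, read out with a cell viability assay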
Description: SANGER: Inhibition of human NKM-1 cell growth in a cell viability assay.

RKO = test system: RKO;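 note: growth inhibition of human RKO cells, read out with a cell viability assay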
Description: SANGER: Inhibition of human RKO cell growth in a cell viability assay.

SBC-1 = test system: SBC-1;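 note: cell viability assay measuring growth inhibition of the SBC-1 cell line, IC50 being the concentration that halves growth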
Description: SANGER: Inhibition of human SBC-1 cell growth in a cell viability assay.

SCH = test system: SCH;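 note: growth inhibition of human SCH cells, read out in a cell viability assay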
Description: SANGER: Inhibition of human SCH cell growth in a cell viability assay.

SF-126 = test system: SF-126;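 note: growth inhibition of human SF126 cells, read out with a cell viability assay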
Description: SANGER: Inhibition of human SF126 cell growth in a cell viability assay.

SJSA-1 = test system: SJSA-1;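 note: growth inhibition of human SJSA-1 cells, read out through a cell viability measurement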
Description: SANGER: Inhibition of human SJSA-1 cell growth in a cell viability assay.

SK-N-DZ = test system: SK-N-DZ;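 note: growth inhibition of the cancer cell line, read out through a viability assay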
Description: SANGER: Inhibition of human SK-N-DZ cell growth in a cell viability assay.

SK-UT-1 = test system: SK-UT-1;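 note: growth inhibition of SK-UT-1 cells, measured by a cell viability assay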
Description: SANGER: Inhibition of human SK-UT-1 cell growth in a cell viability assay.

697 = test system: 697
Description: SANGER: Inhibition of human 697 cell growth in a cell viability assay.

A3-KAW = test system: A3-KAW;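 note: growth inhibition of human A3-KAW cells, read out with a cell viability assay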
Description: SANGER: Inhibition of human A3-KAW cell growth in a cell viability assay.

ATN-1 = test system: ATN-1;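 note: growth inhibition of human ATN-1 cells, read out with a cell viability assay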
Description: SANGER: Inhibition of human ATN-1 cell growth in a cell viability assay.

TE-12 = test system: TE-12;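 note: growth inhibition of TE-12 cells, read out by a cell viability assay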
Description: SANGER: Inhibition of human TE-12 cell growth in a cell viability assay.

TE-5 = test system: TE-5;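 note: inhibition of cell growth, read out by a cell viability assay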
Description: SANGER: Inhibition of human TE-5 cell growth in a cell viability assay.

TE-8 = test system: TE-8;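 note: growth inhibition of TE-8 cells, measured with a cell viability readout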
Description: SANGER: Inhibition of human TE-8 cell growth in a cell viability assay.

U-266 = test system: U-266
Description: SANGER: Inhibition of human U-266 cell growth in a cell viability assay.

COLO-800 = test system: COLO-800;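 note: growth inhibition of COLO-800 cells, read out with a cell viability assay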
Description: SANGER: Inhibition of human COLO-800 cell growth in a cell viability assay.

DEL = details: del;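 note: growth inhibition of the human DEL cell line, read out with a cell viability assay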
Description: SANGER: Inhibition of human DEL cell growth in a cell viability assay.

EW-13 = details: ew-13;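 note: growth inhibition of EW-13 cells, read out with a cell viability assay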
Description: SANGER: Inhibition of human EW-13 cell growth in a cell viability assay.

K562 = details: k562
Description: SANGER: Inhibition of human K-562 cell growth in a cell viability assay.

MZ1-PC = test system: MZ1-PC;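 note: cell viability assay measuring growth inhibition of human MZ1-PC cells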
Description: SANGER: Inhibition of human MZ1-PC cell growth in a cell viability assay.

NB13 = test system: NB13;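 note: cell viability readout measuring growth inhibition of human NB13 cells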
Description: SANGER: Inhibition of human NB13 cell growth in a cell viability assay.

NB6 = test system: NB6;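 note: growth inhibition of NB6 cells, read out by a cell viability assay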
Description: SANGER: Inhibition of human NB6 cell growth in a cell viability assay.

NCI-H1092 = details: nci-h1092;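 note: cell growth inhibition measured with a cell viability assay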
Description: SANGER: Inhibition of human NCI-H1092 cell growth in a cell viability assay.

SK-PN-DW = details: sk-pn-dw;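 note: growth inhibition measured with a viability assay on these cells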
Description: SANGER: Inhibition of human SK-PN-DW cell growth in a cell viability assay.

A253 cell line = test system: A253 cell line;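 note: growth inhibition of A253 cells, read out with a cell viability assay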
Description: SANGER: Inhibition of human A253 cell growth in a cell viability assay.

TGW = details: tgw;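 note: growth inhibition of human TGW cells, read out with a cell viability assay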
Description: SANGER: Inhibition of human TGW cell growth in a cell viability assay.

CN(C)C(=N)NC(=N)N [METFORMIN] was tested, and the IC50 (COR-L88; Homo sapiens, COR-L88) was 6380 µM, the IC50 (D-392MG; Homo sapiens, D-392MG) was > 20000 µM and the IC50 (DOHH-2; Homo sapiens, DOHH-2) was 7640 µM. The IC50 (ES5; Homo sapiens, ES5) was 14700 µM, the IC50 (ES6; Homo sapiens, ES6) was > 20000 µM and the IC50 (ES7; Homo sapiens, ES7) was > 20000 µM. The IC50 (EOL1; Homo sapiens, EOL1) was 1820 µM, the IC50 (HC-1; Homo sapiens, HC-1) was 4200 µM and the IC50 (HCC2218; Homo sapiens, HCC2218) was 701 µM. The IC50 (HCE-4; Homo sapiens, HCE-4) was 11000 µM, the IC50 (HDLM-2; Homo sapiens, HDLM-2) was 18400 µM and the IC50 (HL-60; Homo sapiens, HL-60) was > 20000 µM. The IC50 (KS-1; Homo sapiens, KS-1) was > 20000 µM, the IC50 (LAMA-84; Homo sapiens, LAMA-84) was > 20000 µM and the IC50 (LB2518-MEL; Homo sapiens, LB2518-MEL) was > 20000 µM. The IC50 (LB831-BLC; Homo sapiens, LB831-BLC) was > 20000 µM, the IC50 (Lu-65; Homo sapiens, Lu-65) was 511 µM and the IC50 (LXF-289 cell line; Homo sapiens, LXF-289) was 12000 µM. The IC50 (MLMA; Homo sapiens, MLMA) was > 20000 µM, the IC50 (MN-60; Homo sapiens, MN-60) was > 20000 µM and the IC50 (NB17) was > 20000 µM. The IC50 (NCI-H1299; Homo sapiens, NCI-H1299) was 10100 µM, the IC50 (NCI-H1395; Homo sapiens, NCI-H1395) was > 20000 µM and the IC50 (NCI-H2126; Homo sapiens, NCI-H2126) was > 20000 µM. The IC50 (NKM-1; Homo sapiens, NKM-1) was 9110 µM, the IC50 (RKO; Homo sapiens, RKO) was > 20000 µM and the IC50 (SBC-1; Homo sapiens, SBC-1) was 6930 µM. The IC50 (SCH; Homo sapiens, SCH) was > 20000 µM, the IC50 (SF-126; Homo sapiens, SF-126) was > 20000 µM and the IC50 (SJSA-1; Homo sapiens, SJSA-1) was > 20000 µM. The IC50 (SK-N-DZ; Homo sapiens, SK-N-DZ) was 13300 µM, the IC50 (SK-UT-1; Homo sapiens, SK-UT-1) was > 20000 µM and the IC50 (697; Homo sapiens) was 6500 µM. The IC50 (A3-KAW; Homo sapiens, A3-KAW) was > 20000 µM, the IC50 (ATN-1; Homo sapiens, ATN-1) was 8650 µM and the IC50 (TE-12; Homo sapiens, TE-12) was > 20000 µM. The IC50 (TE-5; Homo sapiens, TE-5) was > 20000 µM, the IC50 (TE-8; Homo sapiens, TE-8) was > 20000 µM and the IC50 (U-266; Homo sapiens, U-266) was > 20000 µM.
BLEOMYCIN showed an IC50 (COLO-800; colo-800) of 2.21 µM, an IC50 (COR-L88; cor-l88) of 73.4 µM and an IC50 (D-392MG; d-392mg) of 13.6 µM. It also gave an IC50 (DEL) of 0.48 µM, an IC50 (DOHH-2; dohh-2) of 5.29 µM and an IC50 (ES5; es5) of 0.505 µM. It also gave an IC50 (ES6; es6) of 0.406 µM, an IC50 (ES7; es7) of 0.378 µM and an IC50 (EW-13) of 0.292 µM. It also gave an IC50 (EOL1; eol1) of 2.42 µM, an IC50 (HC-1; hc-1) of 0.993 µM and an IC50 (HCC2218; hcc2218) of 41.9 µM. The IC50 (HCE-4; hce-4) was 0.453 µM, the IC50 (HDLM-2; hdlm-2) was 14.3 µM and the IC50 (HL-60; hl-60) was 35.3 µM. It also gave an IC50 (K562) of 126 µM, an IC50 (KS-1; ks-1) of 0.0108 µM and an IC50 (LAMA-84; lama-84) of 4.29 µM. For the same compound, the IC50 (LB2518-MEL; lb2518-mel) was 0.182 µM, the IC50 (LB831-BLC; lb831-blc) was 8.38 µM and the IC50 (Lu-65; lu-65) was 19.5 µM. For the same compound, the IC50 (LXF-289 cell line; lxf-289) was 0.644 µM, the IC50 (MLMA; mlma) was 0.87 µM and the IC50 (MN-60; mn-60) was 4.05 µM. It also gave an IC50 (MZ1-PC; mz1-pc) of 0.224 µM, an IC50 (NB13; nb13) of 36.7 µM and an IC50 (NB6; nb6) of 430 µM. For the same compound, the IC50 (NCI-H1092) was 160 µM, the IC50 (NCI-H1299; nci-h1299) was 0.108 µM and the IC50 (NCI-H1395; nci-h1395) was 384 µM. For the same compound, the IC50 (NCI-H2126; nci-h2126) was 358 µM, the IC50 (NKM-1; nkm-1) was 0.00765 µM and the IC50 (RKO; rko) was 0.524 µM. The IC50 (SBC-1; sbc-1) was 370 µM, the IC50 (SCH; sch) was 444 µM and the IC50 (SF-126; sf-126) was 3.09 µM. The IC50 (SJSA-1; sjsa-1) was 2.19 µM, the IC50 (SK-N-DZ; sk-n-dz) was 170 µM and the IC50 (SK-PN-DW) was 1.45 µM. The IC50 (SK-UT-1; sk-ut-1) was 0.00629 µM, the IC50 697 was 1.58 µM and the IC50 (A253 cell line; a253) was 2.86 µM. For the same compound, the IC50 (A3-KAW; a3-kaw) was 0.717 µM, the IC50 (ATN-1; atn-1) was 18.9 µM and the IC50 (TE-12; te-12) was 0.719 µM. It also gave an IC50 (TE-5; te-5) of 7.96 µM, an IC50 (TE-8; te-8) of 0.377 µM and an IC50 (TGW) of 65.8 µM. The IC50 (U-266; u-266) was 282 µM.
With CC(C)c1ccccc1Cc1cc(C(=O)Nc2ccc(S(=O)(=O)c3ccccc3C(C)(C)C)cc2)c(O)c(O)c1O the IC50 (COLO-800; Homo sapiens, COLO-800) was 0.183 µM, the IC50 (D-392MG; Homo sapiens, D-392MG) was 1.42 µM and the IC50 (ES5; Homo sapiens, ES5) was 0.884 µM. It also gave an IC50 (ES6; Homo sapiens, ES6) of 0.373 µM, an IC50 (ES7; Homo sapiens, ES7) of 0.27 µM and an IC50 (HCE-4; Homo sapiens, HCE-4) of 0.469 µM. For the same compound, the IC50 (KS-1; Homo sapiens, KS-1) was 0.322 µM, the IC50 (LB2518-MEL; Homo sapiens, LB2518-MEL) was 0.178 µM and the IC50 (LB831-BLC; Homo sapiens, LB831-BLC) was 0.745 µM. The IC50 (LXF-289 cell line; Homo sapiens, LXF-289) was 0.0728 µM, the IC50 (MLMA; Homo sapiens, MLMA) was 0.185 µM and the IC50 (MZ1-PC; Homo sapiens, MZ1-PC) was 0.635 µM. The IC50 (NB13; Homo sapiens, NB13) was 0.158 µM, the IC50 (NB17) was 1.06 µM and the IC50 (NB6; Homo sapiens, NB6) was 2.49 µM. The IC50 (NCI-H1299; Homo sapiens, NCI-H1299) was 0.28 µM, the IC50 (NCI-H1395; Homo sapiens, NCI-H1395) was 0.612 µM and the IC50 (NCI-H2126; Homo sapiens, NCI-H2126) was 0.782 µM. The IC50 (RKO; Homo sapiens, RKO) was 0.0152 µM, the IC50 (SCH; Homo sapiens, SCH) was 0.367 µM and the IC50 (SF-126; Homo sapiens, SF-126) was 0.0571 µM. The IC50 (SJSA-1; Homo sapiens, SJSA-1) was 0.327 µM, the IC50 (SK-N-DZ; Homo sapiens, SK-N-DZ) was 0.207 µM and the IC50 (SK-UT-1; Homo sapiens, SK-UT-1) was 0.0287 µM. The IC50 (A253 cell line; Homo sapiens, A253) was 0.57 µM, the IC50 (TE-5; Homo sapiens, TE-5) was 0.884 µM and the IC50 (TE-8; Homo sapiens, TE-8) was 0.129 µM.
